Read-outs that look alike come from different tables or passages of the source.
Legend:
IKKε = target: T1, IKKε (Homo sapiens, UniProt Q14164); test: In-vitro IKKε kinase assay ([γ33]ATP filter-plate); format: biochemical
T1 construct: His-tag; made in house; host or cells: Sf9 insect cells
T1 sequence (Q14164 1-716): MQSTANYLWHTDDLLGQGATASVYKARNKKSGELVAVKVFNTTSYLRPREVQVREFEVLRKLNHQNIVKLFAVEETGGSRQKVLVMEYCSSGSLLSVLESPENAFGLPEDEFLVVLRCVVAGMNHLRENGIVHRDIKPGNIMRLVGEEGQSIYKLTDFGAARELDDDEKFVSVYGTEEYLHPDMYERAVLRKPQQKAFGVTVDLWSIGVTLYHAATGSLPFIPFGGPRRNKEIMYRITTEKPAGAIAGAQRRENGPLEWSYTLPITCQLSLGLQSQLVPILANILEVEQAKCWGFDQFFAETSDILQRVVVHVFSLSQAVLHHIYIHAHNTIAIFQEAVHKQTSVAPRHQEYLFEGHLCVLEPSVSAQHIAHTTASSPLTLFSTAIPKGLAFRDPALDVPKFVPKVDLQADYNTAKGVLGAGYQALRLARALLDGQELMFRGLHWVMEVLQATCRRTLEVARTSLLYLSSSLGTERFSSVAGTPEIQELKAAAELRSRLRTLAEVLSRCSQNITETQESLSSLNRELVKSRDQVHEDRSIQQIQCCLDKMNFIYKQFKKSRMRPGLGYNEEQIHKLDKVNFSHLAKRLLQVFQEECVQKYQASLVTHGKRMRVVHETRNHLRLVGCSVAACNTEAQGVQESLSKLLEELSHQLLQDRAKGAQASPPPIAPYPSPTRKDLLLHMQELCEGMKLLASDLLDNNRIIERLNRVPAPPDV
Summary of the method: (§1)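 Phosphorylation of casein or myelin basic protein was counted by P-81 filter capture after 30-45 min reactions stopped with phosphoric acid, with counts normalized to DMSO after background subtraction. ATP was twice Km: 60 μM for TBK1 and 32 μM for IKKε, plus [γ33]ATP. Sf9-expressed His-tag enzymes were used at normal/sensitized levels of 0.1/0.02 μg/ml (TBK1) and 0.1/0.015 μg/ml (IKKε).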

[1] = system: IKKε-mediated phosphorylation of IRF3; test: In-situ phosphorylation of IRF3 (pIRF3 Ser396 ELISA) in HEK293T cells cotransfected with IRF3 and IKKε; format: cell-based; conditions: Homo sapiens, HEK-293T; HEK293T cells, 20 hours, text bins; read-out: IC50 for inhibition of the in-situ IKKε-mediated phosphorylation of IRF3
Experimental: HEK293T cells were cotransfected in a 10-cm dish with IRF3 and IKKε expression plasmids using Lipofectamine 2000 (Invitrogen, Carlsbad, Calif.). The following day, cells were replated at 20,000 per well in 96-well plates and treated with test compounds (compounds according to Formula I) for 20 hours. Cell lysates were prepared and analyzed using an ELISA for phospho-Ser396 (anti-IRF3 capture antibody, Santa Cruz Biotechnology, Inc., Santa Cruz, Calif.; anti-p-Ser396 IRF3 detection antibody, Cell Signaling, Danvers, Mass.). pIRF3 levels in compound treated cells were normalized to DMSO treated cells (no compound). Cell viability was assayed in a parallel set of plates to monitor cytotoxic effects of the test compounds (CellTiter-Glo, Promega, Inc., Madison, Wis.). TBK1 activity was tested by Western blotting using a phospho-specific IRF7 antibody. Similar to above, HEK293T cells were transfected with IRF7 and TBK1 expression plasmids. Cells were seeded in 12-well plates at 150,000 per well and treated overnight with test compounds. Protein lysates were prepared and processed for Western blotting followed by detection using a phosphor-Ser477/Ser479 IRF7 antibody (BD Biosciences, San Jose, Calif.)

TBK1 = target: T2, TBK1 (Homo sapiens, UniProt Q9UHD2); test: In-vitro TBK1 kinase assay ([γ33]ATP filter-plate); format: biochemical
T2 construct: His-tag; made in house; host or cells: Sf9 insect cells
T2 sequence (Q9UHD2 1-729): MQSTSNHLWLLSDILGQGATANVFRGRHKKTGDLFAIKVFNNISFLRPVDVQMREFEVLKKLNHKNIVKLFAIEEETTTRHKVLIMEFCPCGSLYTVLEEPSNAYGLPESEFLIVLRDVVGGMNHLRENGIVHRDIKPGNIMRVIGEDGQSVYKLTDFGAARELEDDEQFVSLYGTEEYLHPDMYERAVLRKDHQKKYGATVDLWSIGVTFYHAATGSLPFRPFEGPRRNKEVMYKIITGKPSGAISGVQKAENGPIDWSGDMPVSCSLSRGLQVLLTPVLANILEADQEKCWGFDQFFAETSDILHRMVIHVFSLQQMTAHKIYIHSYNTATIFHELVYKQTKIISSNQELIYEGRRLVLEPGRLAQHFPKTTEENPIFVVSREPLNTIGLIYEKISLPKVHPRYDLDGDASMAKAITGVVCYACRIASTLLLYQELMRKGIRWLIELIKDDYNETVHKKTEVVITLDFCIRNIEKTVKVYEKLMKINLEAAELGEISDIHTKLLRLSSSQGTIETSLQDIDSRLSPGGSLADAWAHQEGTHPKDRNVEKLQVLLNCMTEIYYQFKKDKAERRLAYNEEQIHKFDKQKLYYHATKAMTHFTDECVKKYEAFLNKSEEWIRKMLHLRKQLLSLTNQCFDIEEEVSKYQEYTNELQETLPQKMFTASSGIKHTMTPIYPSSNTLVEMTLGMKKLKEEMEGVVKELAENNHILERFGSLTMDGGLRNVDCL
Summary of the method: as §1

[2] = text bins, read-out: IC50 for inhibition of the kinase activity of IKKε
[3] = text bins, read-out: IC50 for inhibition of the kinase activity of TBK1

SMILES	IC50 (IKKε; [2])	IC50 [1]	IC50 (TBK1; [3])	IC50 (IKKε; Table 3, read-out: IKKε IC50)	IC50 (TBK1; Table 3, read-out: TBK1 IC50)
COC1CN(C(=O)Nc2cccc(Nc3nccc(-c4ccc(OC5CCOCC5)c(C#N)c4)n3)c2)C1 [compound 668, N-[3-({4-[3-Cyano-4-(tetrahydro-2H-pyran-4-yloxy)phenyl]pyrimidin-2-yl}amino)phenyl]-3-methoxyazetidine-1-carboxamide]	< 5 nM	250 to 500 nM	–	–	–
N#Cc1cc(-c2ccnc(Nc3ccc4[nH]cnc4c3)n2)ccc1OC1CCOCC1 [compound 583, 5-[2-(1H-Benzimidazol-5-ylamino)pyrimidin-4-yl]-2-(tetrahydro-2H-pyran-4-yloxy)benzonitrile]	< 5 nM	250 to 500 nM	–	–	–
CN(C)Cc1cccc(Nc2nccc(-c3ccc(OC4CCOCC4)c(C#N)c3)n2)c1 [compound 548, 5-[2-({3-[(Dimethylamino)methyl]phenyl}amino)pyrimidin-4-yl]-2-(tetrahydro-2H-pyran-4-yloxy)benzonitrile]	< 5 nM	< 100 nM	–	–	–
N#Cc1cc(-c2ccnc(Nc3ccc(-n4cnnc4)cc3)n2)ccc1OC1CCOCC1 [compound 607, 2-(Tetrahydro-2H-pyran-4-yloxy)-5-(2-{[4-(4H-1,2,4-triazol-4-yl)phenyl]amino}pyrimidin-4-yl)benzonitrile]	< 5 nM	100 to 250 nM	–	–	–
COCCC(=O)Nc1cccc(Nc2nccc(-c3ccc(OC4CCOCC4)c(C#N)c3)n2)c1 [compound 538, N-[3-({4-[3-Cyano-4-(tetrahydro-2H-pyran-4-yloxy)phenyl]pyrimidin-2-yl}amino)phenyl]-3-methoxypropanamide]	< 5 nM	< 100 nM	–	–	–
CCN(CC)CCN(CC)C(=O)Cc1cccc(Nc2nccc(-c3ccc(OC4CCOCC4)c(C#N)c3)n2)c1 [compound 409, 2-[3-({4-[3-Cyano-4-(tetrahydro-2H-pyran-4-yloxy)phenyl]pyrimidin-2-yl}amino)phenyl]-N-[2-(diethylamino)ethyl]-N-ethylacetamide]	5 to 50 nM	–	< 10 nM	–	–
COc1ccc(-c2ccnc(Nc3ccc(S(=O)(=O)NCCCN(C)C)c(OC)c3)n2)cc1C#N [compound 375, 4-{[4-(3-Cyano-4-methoxyphenyl)pyrimidin-2-yl]amino}-N-[3-(dimethylamino)propyl]-2-methoxybenzene-sulfonamide]	5 to 50 nM	–	10 to 100 nM	–	–
N#Cc1cc(-c2ccnc(Nc3ccc(CS(=O)(=O)NCCO)cc3)n2)ccc1NC(=O)C1CC1 [compound 566, N-(2-Cyano-4-{2-[(4-{[(2-hydroxyethyl)sulfamoyl]methyl}phenyl)amino]pyrimidin-4-yl}phenyl) cyclopropane-carboxamide]	< 5 nM	–	< 10 nM	–	–
COc1ccc(-c2ccnc(Nc3ccc(S(=O)(=O)NCCCN)c(OC)c3)n2)cc1C#N [compound 383, N-(3-Aminopropyl)-4-{[4-(3-cyano-4-methoxyphenyl)pyrimidin-2-yl]amino}-2-methoxybenzene-sulfonamide]	5 to 50 nM	–	10 to 100 nM	–	–
COc1cc(Nc2nccc(-c3cccc(C#N)c3)n2)cc(OC)c1 [compound 347, 3-{2-[(3,5-Dimethoxyphenyl)amino]pyrimidin-4-yl}benzonitrile]	50 to 500 nM	–	100 to 500 nM	–	–
CC(C)CC(=O)Nc1ccc(-c2ccnc(Nc3ccc(N4CCOCC4)cc3)n2)cc1C#N [Example 1, N-[2-cyano-4-(2-{[4-(morpholin-4-yl)phenyl]amino}pyrimidin-4-yl)phenyl]-3-methylbutanamide]	5 to 50 nM	–	< 10 nM	–	–
CNCCCNS(=O)(=O)c1ccc(Nc2nccc(-c3ccc(OC4CCOCC4)c(C#N)c3)n2)cc1OC [compound 396]	< 5 nM	–	< 10 nM	–	–
COc1ccc(-c2ccnc(Nc3ccc(CN4CCOCC4)cc3)n2)cc1C#N [Example 251, 2-Methoxy-5-(2-{[4-(morpholin-4-ylmethyl)phenyl]amino}pyrimidin-4-yl)benzonitrile]	5 to 50 nM	–	10 to 100 nM	–	–
C[C@H](O)C(=O)N1CCC(Oc2ccc(-c3ccnc(Nc4ccc(C(=O)NCCN(C)C)cc4)n3)cc2C#N)CC1 [compound 367, 4-({4-[3-cyano-4-({1-[(2S)-2-hydroxypropanoyl]piperidin-4-yl}oxy)phenyl]pyrimidin-2-yl}amino)-N-[2-(dimethylamino)ethyl]benzamide]	< 5 nM	–	< 10 nM	–	–
N#Cc1cc(-c2ccnc(Nc3ccc(N4CCOCC4)cc3)n2)ccc1NS(=O)(=O)CC(F)(F)F [Example 243, N-[2-cyano-4-(2-{[4-(morpholin-4-yl)phenyl]amino}pyrimidin-4-yl)phenyl]-2,2,2-trifluoroethane-sulfonamide]	5 to 50 nM	–	10 to 100 nM	–	–
CN1CCN(S(=O)(=O)c2ccc(Nc3nccc(-c4ccc(OC5CCOCC5)c(C#N)c4)n3)cc2)CC1 [Example 284, 5-[2-({4-[(4-methylpiperazin-1-yl)sulfonyl]phenyl}amino)pyrimidin-4-yl]-2-(tetrahydro-2H-pyran-4-yloxy)benzonitrile]	5 to 50 nM	–	< 10 nM	–	–
N#Cc1cc(-c2ccnc(Nc3ccc(N4CCOCC4)cc3)n2)ccc1OC1CCN(S(N)(=O)=O)CC1 [Example 80, 4-[2-cyano-4-(2-{[4-(morpholin-4-yl)phenyl]amino}pyrimidin-4-yl)phenoxy]piperidine-1-sulfonamide]	< 5 nM	–	< 10 nM	0.8 nM	0.4 nM
COC1CN(C(=O)c2ccc(Nc3nccc(-c4ccc(NC(=O)C5CC5)c(C#N)c4)n3)cc2)C1 [compound 665, N-{2-Cyano-4-[2-({4-[(3-methoxyazetidin-1-yl)carbonyl]phenyl}amino)pyrimidin-4-yl]phenyl} cyclopropane-carboxamide]	< 5 nM	–	< 10 nM	–	–
N#Cc1cc(-c2ccnc(Nc3ccc(NC(=O)NCCO)cc3)n2)ccc1OC1CCOCC1 [Example 11, 1-[4-({4-[3-cyano-4-(tetrahydro-2H-pyran-4-yloxy)phenyl]pyrimidin-2-yl}amino)phenyl]-3-(2-hydroxyethyl)urea]	< 5 nM	–	< 10 nM	–	–
N#Cc1cc(-c2ccnc(Nc3ccc(N4CCOCC4)cc3)n2)ccc1NN1CCOCC1 [Example 285, 2-(morpholin-4-ylamino)-5-(2-{[4-(morpholin-4-yl)phenyl]amino}pyrimidin-4-yl)benzonitrile]	5 to 50 nM	–	< 10 nM	–	–
CC(C)(C)OC(=O)NCc1ccc(Nc2nccc(-c3ccc(OC4CCOCC4)c(C#N)c3)n2)cc1 [compound 491, tert-butyl [4-({4-[3-cyano-4-(tetrahydro-2H-pyran-4-yloxy)phenyl]pyrimidin-2-yl}amino)benzyl] carbamate]	5 to 50 nM	–	< 10 nM	–	–

From US20150352108A1, “AMINO-PYRIMIDINE COMPOUNDS AS INHIBITORS OF TBK1 AND/OR IKK EPSILON” (Alzheimer's Institute of America, priority 2009, published 2015)
